Data: ChEMBL document CHEMBL1201862, “PubChem BioAssay data set” (2004)
Where “and” joins values, the source holds several entries; their conditions need not be identical. Equal entries are not always repeated.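 Results reflect a 48-hour exposure of cells in 96-well plates to compound at five concentrations. GI50: concentration for 50% inhibition of growth.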 Calls of active or inactive are those of the source. No stated cut-off is given here; in the data, active = GI50 up to about 1.1 µM and inactive = higher.

Experiments:
Test in all cases: NCI tumour cell line growth inhibition, 48 h
SW-620 = system: SW-620
SK-MEL-2 = system: SK-MEL-2
HOP-62 = system: HOP-62
NCI-H460 = system: NCI-H460
COLO 205 = system: COLO 205
NCI-H23 = system: NCI-H23
U-251 = system: U-251
OVCAR-8 = system: OVCAR-8
CAKI-1 = system: CAKI-1
SF-539 = system: SF-539
Malme-3M = system: Malme-3M
ACHN = system: ACHN
SF-268 = system: SF-268
MDA-MB-435 = system: MDA-MB-435
UO-31 = system: UO-31
MCF7 = system: MCF7
SNB-75 = system: SNB-75
DU-145 = system: DU-145
T47D = system: T47D

Row | Structure (SMILES) | GI50 (SW-620) | GI50 (SK-MEL-2) | GI50 (HOP-62) | GI50 (NCI-H460) | GI50 (COLO 205) | GI50 (NCI-H23) | GI50 (U-251) | GI50 (OVCAR-8) | GI50 (CAKI-1) | GI50 (SF-539) | GI50 (Malme-3M) | GI50 (ACHN) | GI50 (SF-268) | GI50 (MDA-MB-435) | GI50 (UO-31) | GI50 (MCF7) | GI50 (SNB-75) | GI50 (DU-145) | GI50 (T47D)
1 | CCOC(=O)C1(C)C2=CC=C(O2)C(C)(C)C2=CC=C(O2)C(C)(C)C2=CC=C(O2)C(C)(C)C2=CC=C1O2 | > 100 µM (inactive) | > 100 µM (inactive) | > 100 µM (inactive) | > 100 µM (inactive) | 42.3 µM (inactive) | > 100 µM (inactive) | 48.3 µM (inactive) | 76.2 µM (inactive) | > 100 µM (inactive) | > 100 µM (inactive) | > 100 µM (inactive) | > 100 µM (inactive) | > 100 µM (inactive) |  |  |  |  |  | 
2 | CCCNC(=O)CCC(C)C1CCC2C3C(C[C@H](OC(C)=O)[C@]12C)[C@@]1(C)CCC2(C[C@H]1C[C@H]3OC(C)=O)OOC1(CC[C@]3(C)C4C[C@H](OC(C)=O)[C@]5(C)C(C(C)CCC(=O)NCCC)CCC5C4[C@H](OC(C)=O)C[C@@H]3C1)OO2 (some centres undefined) | > 100 µM (inactive) | > 100 µM (inactive) | 20.8 µM (inactive) | > 100 µM (inactive) | > 100 µM (inactive) | > 100 µM (inactive) | > 100 µM (inactive) | 23.8 µM (inactive) | 46.5 µM (inactive) |  | 34.6 µM (inactive) | 4.37 µM (inactive) | 32.1 µM (inactive) | > 100 µM (inactive) | 0.101 µM (active) | > 100 µM (inactive) | 57.5 µM (inactive) | 53.2 µM (inactive) | 
3 | C[C@H]1C/C=C/[C@H]2[C@@H]3O[C@]3(C)[C@@H](C)[C@H]3[C@H](Cc4ccccc4)NC(=O)[C@]32OC(=O)O/C=C/[C@@](C)(O)C1=O [CYTOCHALASIN E] | 21.8 µM (inactive) | 0.393 µM (active) | 0.0206 µM (active) | 0.0161 µM (active) |  | 0.197 µM (active) | 0.0188 µM (active) | 23.6 µM (inactive) | 0.0132 µM (active) | 0.0169 µM (active) | 0.0251 µM (active) | < 0.01 µM (active) | 0.0638 µM (active) | 18.9 µM (inactive) | 0.0199 µM (active) | 0.0292 µM (active) | 0.0102 µM (active) | < 0.01 µM (active) | 
4 | CC(Oc1ccc(Cl)cc1Cl)C(=O)NN1C(=O)CSC1c1ccc(Cl)cc1 (centres undefined) | > 100 µM (inactive) | 56.1 µM (inactive) | 33.6 µM (inactive) | > 100 µM (inactive) | > 100 µM (inactive) | 79.8 µM (inactive) | 40.3 µM (inactive) | 46.9 µM (inactive) | 18.9 µM (inactive) | 20.5 µM (inactive) |  | 42.5 µM (inactive) | 88.7 µM (inactive) | > 100 µM (inactive) | > 100 µM (inactive) | 36.8 µM (inactive) | 27.9 µM (inactive) | 63.5 µM (inactive) | 42.5 µM (inactive)
5 | CC(=O)OC1OC(c2ccoc2)C[C@@]12C1CCC3O[C@]3(C)[C@]1(C)C[C@H](OC(C)=O)[C@H]2C (some centres undefined) | > 75 µM (inactive) | > 75 µM (inactive) |  | 58.3 µM (inactive) | > 75 µM (inactive) | 74.1 µM (inactive) | > 75 µM (inactive) | > 75 µM (inactive) | > 75 µM (inactive) | > 75 µM (inactive) |  | > 75 µM (inactive) | > 75 µM (inactive) | > 75 µM (inactive) | 70.8 µM (inactive) | 44.9 µM (inactive) | > 75 µM (inactive) | > 75 µM (inactive) | 35.2 µM (inactive)
6 | Cc1nc2ccc(Cl)cc2c(Cl)c1CCCl | 40.2 µM (inactive) | 29.6 µM (inactive) | 42.4 µM (inactive) | 43.4 µM (inactive) | 57.3 µM (inactive) | 60.4 µM (inactive) | 45.9 µM (inactive) | 62.4 µM (inactive) | 54 µM (inactive) | > 100 µM (inactive) | > 100 µM (inactive) | > 100 µM (inactive) | > 100 µM (inactive) | 8.36 µM (inactive) | 42.2 µM (inactive) | 30.6 µM (inactive) | 29.4 µM (inactive) | 43.7 µM (inactive) | 
7 | O=C(NCCC1([N+](=O)[O-])CCN(C(=O)c2ccccc2)CC1)c1ccccc1 | > 100 µM (inactive) | > 100 µM (inactive) |  | 35.3 µM (inactive) | 53.7 µM (inactive) | > 100 µM (inactive) | > 10 µM (inactive) | > 100 µM (inactive) | 42.3 µM (inactive) | > 100 µM (inactive) | 56.5 µM (inactive) | > 100 µM (inactive) | > 100 µM (inactive) | 26.7 µM (inactive) | 55.2 µM (inactive) |  |  | > 100 µM (inactive) | > 100 µM (inactive)
8 | C#Cc1nc(N)c2ncn(C3OC(COS(N)(=O)=O)C(O)C3O)c2n1 (centres undefined) | < 0.0248 µM (active) | 0.0101 µM (active) | 0.146 µM (active) | < 0.0193 µM (active) | 0.0277 µM (active) | < 0.0164 µM (active) | 0.0213 µM (active) | 0.0188 µM (active) | 0.0559 µM (active) | 0.0362 µM (active) |  | < 0.0146 µM (active) | 0.018 µM (active) | 0.016 µM (active) | < 0.0187 µM (active) | 0.0124 µM (active) | 0.02 µM (active) | 0.0518 µM (active) | < 0.01 µM (active)
9 | CC12CCC(CC(=O)/C1=C(/Br)I)C2(C)C (centres undefined) | 17 µM (inactive) | 13.7 µM (inactive) | 17.9 µM (inactive) | > 100 µM (inactive) | 17.2 µM (inactive) | 13.5 µM (inactive) |  | 17.8 µM (inactive) | 16.9 µM (inactive) | 15.7 µM (inactive) | 12.7 µM (inactive) | 18.2 µM (inactive) | 14.6 µM (inactive) | 13.7 µM (inactive) | 18.2 µM (inactive) |  | 16.3 µM (inactive) | 17.7 µM (inactive) | 21.7 µM (inactive)
10 | Cc1ccc(S(=O)(=O)NC(=O)Nc2cc(Cl)c(S(N)(=O)=O)cc2S(N)(=O)=O)cc1 | > 100 µM (inactive) | > 100 µM (inactive) | > 100 µM (inactive) |  | > 100 µM (inactive) | > 100 µM (inactive) | > 100 µM (inactive) | > 100 µM (inactive) | > 100 µM (inactive) | 58.3 µM (inactive) | > 100 µM (inactive) |  | > 100 µM (inactive) | > 100 µM (inactive) | > 100 µM (inactive) | > 100 µM (inactive) | > 100 µM (inactive) | > 100 µM (inactive) | 
11 | CC1OC(OC2C(OC(=O)[C@]34CCC(C)(C)C[C@H]3C3=CC[C@@H]5[C@@]6(C)CC[C@H](OC7OC(C(=O)O)C(O)C(O)C7O)C(C)(C)[C@@H]6CC[C@@]5(C)[C@]3(C)CC4)OCC(O)C2O)C(O)C(O)C1OC1OCC(O)C(O)C1O (some centres undefined) |  | 19.4 µM (inactive) and 33.1 µM (inactive) |  | > 100 µM (inactive) | 16.7 µM (inactive) and 17.3 µM (inactive) | 17.7 µM (inactive) and 19.6 µM (inactive) | 39.3 µM (inactive) and 75.2 µM (inactive) | > 100 µM (inactive) | 30 µM (inactive) and 40.4 µM (inactive) |  | 34.7 µM (inactive) and 28.3 µM (inactive) |  | > 100 µM (inactive) and 53.2 µM (inactive) | 18.3 µM (inactive) and 18.9 µM (inactive) | 16.8 µM (inactive) and 22.1 µM (inactive) | 50.1 µM (inactive) and 41.5 µM (inactive) |  |  | 34.8 µM (inactive) and 56.9 µM (inactive)
12 | [O-][S+](Nc1ccccc1)c1ccc(N2CCOCC2)cc1 (centres undefined) | 30.1 µM (inactive) | > 100 µM (inactive) | > 100 µM (inactive) | 42.6 µM (inactive) | 59.6 µM (inactive) | > 100 µM (inactive) | > 100 µM (inactive) | > 100 µM (inactive) |  | 35.8 µM (inactive) | 36.4 µM (inactive) | 65.8 µM (inactive) | 15.4 µM (inactive) | 32.7 µM (inactive) | 10.8 µM (inactive) | 57.4 µM (inactive) |  | 51.4 µM (inactive) | 13.7 µM (inactive)
13 | CN1CCN2CCN(C)CCN(CC1)CC2 | > 100 µM (inactive) | > 100 µM (inactive) | > 100 µM (inactive) | > 100 µM (inactive) | > 100 µM (inactive) | > 100 µM (inactive) | > 100 µM (inactive) | > 100 µM (inactive) | > 100 µM (inactive) | > 100 µM (inactive) |  | > 100 µM (inactive) | > 100 µM (inactive) | > 100 µM (inactive) | > 100 µM (inactive) | > 100 µM (inactive) | > 100 µM (inactive) | > 100 µM (inactive) | > 100 µM (inactive)
14 | CC(=O)NC(CC(C)C)C(=O)NC(Cc1ccccc1)C(=S)N1CCCC1 (centres undefined) | > 100 µM (inactive) | > 100 µM (inactive) | > 100 µM (inactive) | > 100 µM (inactive) | > 100 µM (inactive) | > 100 µM (inactive) | > 100 µM (inactive) | > 100 µM (inactive) | > 100 µM (inactive) |  | > 100 µM (inactive) | > 100 µM (inactive) | > 100 µM (inactive) |  | > 100 µM (inactive) |  | > 100 µM (inactive) |  | 
15 | O=C1OCC(O)=C1C(c1ccc(Cl)cc1)c1cc2c(cc1O)OCO2 (centres undefined) | > 100 µM (inactive) | > 100 µM (inactive) | > 100 µM (inactive) | > 100 µM (inactive) | > 100 µM (inactive) |  |  |  | > 100 µM (inactive) | > 100 µM (inactive) | > 100 µM (inactive) | > 100 µM (inactive) | > 100 µM (inactive) | > 100 µM (inactive) | > 100 µM (inactive) | > 100 µM (inactive) | > 100 µM (inactive) | > 100 µM (inactive) | 
